{
  "source": "patent US7404945B2",
  "about": "“Method of evaluating pharmacological effects of medicine” (Tokyo Gas Company Limited, priority 2002, dated 2008)",
  "assay_type_in_all_cases": "in vivo",
  "key": {"[1]": {"test_system": "α-glucosidase", "assay": "Glc-[U-13C]Glc breath test", "details": "rats, n=2", "description": "The pharmacological effect of acarbose is the inhibition of α-glucosidase. Glc-[U-^13C]Glc (see Production Example 2) which is a substrate for α-glucosidase is provided as a pharmacological effect diagnostic reagent and a screening reagent."}, "[2]": {"target": "T1, DOPA decarboxylase (Rattus norvegicus, UniProt P14173)", "T1 construct": "from tissue; host or cells: living rat (whole-animal breath test)", "T1 sequence (P14173 1-480)": "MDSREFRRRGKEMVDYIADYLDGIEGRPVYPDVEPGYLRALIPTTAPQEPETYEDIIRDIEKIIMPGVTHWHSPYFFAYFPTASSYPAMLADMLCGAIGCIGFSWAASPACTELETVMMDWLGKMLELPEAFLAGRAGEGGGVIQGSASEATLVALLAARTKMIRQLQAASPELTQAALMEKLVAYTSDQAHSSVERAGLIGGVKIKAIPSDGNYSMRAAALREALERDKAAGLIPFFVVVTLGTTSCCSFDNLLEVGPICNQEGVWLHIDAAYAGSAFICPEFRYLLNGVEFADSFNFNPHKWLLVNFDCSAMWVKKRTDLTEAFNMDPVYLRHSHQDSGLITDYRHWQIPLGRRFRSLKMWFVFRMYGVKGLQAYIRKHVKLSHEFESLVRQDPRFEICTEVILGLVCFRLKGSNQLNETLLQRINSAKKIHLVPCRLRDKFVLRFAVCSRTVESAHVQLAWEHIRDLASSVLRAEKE", "assay": "[1-13C]DOPA breath test", "details": "rats", "experimental": "The pharmacological effect of benserazide is the inhibition of DOPA decarboxylase. [1-^13C]DOPA (see Production Example 1) which is a substrate for DOPA decarboxylase is provided as a pharmacological effect diagnostic reagent and a screening reagent. Comparison was made in the [1-^13C]DOPA breath test on rats which were administered intraperitoneally with benserazide hydrochloride (Sigma) at a dose of 50 mg/kg three times (i.e., in the morning and evening of the day before the [1-^13C]DOPA breath test and 30 minutes before the breath test was started on the day of the test) (administration group) and rats without administration (control group).\nThe rats of the administration group and the control group which had been fasted overnight were fixed supinely under anesthesia. […] When the CO2 concentration stabilized, [1-^13C]DOPA was administered at a dose of 50 mg/kg through the femoral vein.\nOutput data from the ^13CO2 analyzer were AD-converted and input to a personal computer (Apple Power Macintosh 8500). […]\nΔ^13C (‰) was calculated from the ^13C level in the exhaled CO2 at each time point (^13Ctmin) and the ^13C level in the standard CO2 (^13Cstd) according to the following equation: Δ^13C(‰)=[(^13Ctmin−^13C0min)/^13Cstd]×1000"}, "[3]": {"test_system": "pancreatic protease", "assay": "Bz-Arg-[1-13C]Ala breath test", "details": "rats", "experimental": "The pharmacological effect of camostat mesylate is the inhibition of pancreatic protease. Bz-Arg-[1-^13C]Ala (see Production Example 3) which is a substrate for pancreatic protease is provided as a pharmacological effect diagnostic reagent and a screening reagent. […] The results of the Bz-Arg-[1-^13C]Ala breath test were as follows: in the both groups, the Δ^13C increased linearly until at the time point of 15 minutes after the administration; twenty minutes after the administration, the Δ^13C reached 41.29±7.49‰ in the control group (n=3), while the Δ^13C reached 27.64±4.86‰ in the administration group (n=3); thus, the Δ^13C decreased in the administration group (FIG. 7). From the results, it was confirmed that the function of the target enzyme for camostat mesylate was inhibited under the camostat mesylate administration conditions of the present example."}},
  "note": "Where a name gives a salt, the structure may show the parent alone.",
  "data": [
    {"smiles": "C[C@H]1O[C@H](O[C@H]2[C@H](O)[C@@H](O)[C@@H](O[C@H]3[C@H](O)[C@@H](O)C(O)O[C@@H]3CO)O[C@@H]2CO)[C@H](O)[C@@H](O)[C@@H]1N[C@H]1C=C(CO)[C@@H](O)[C@H](O)[C@H]1O", "note": "(stereo partly shown) [acarbose]", "values": [
      {"measurement": "Δ13C in 20 minutes", "setting": "[1]; acarbose 2 mg/kg oral concurrently with Glc-[U-13C]Glc 25 mg/kg oral", "value": "37.06 ±0.16 ‰"},
      {"measurement": "Δ13C in 20 minutes", "setting": "[1]; acarbose 4 mg/kg oral concurrently with Glc-[U-13C]Glc 25 mg/kg oral", "value": "26.01 ±0.38 ‰"},
      {"measurement": "Δ13C in 20 minutes", "setting": "[1]; acarbose 10 mg/kg oral concurrently with Glc-[U-13C]Glc 25 mg/kg oral", "value": "9.86±0.66 ‰"}
    ]},
    {"smiles": "NC(CO)C(=O)NNCc1ccc(O)c(O)c1O", "note": "(stereo not shown) [benserazide, benserazide hydrochloride]", "values": [
      {"measurement": "inhibition at 50 mg/kg", "setting": "[2]; rat, ip, benserazide 50 mg/kg i.p. three times, [1-13C]DOPA breath test, read-out: inhibition of the function of the target enzyme", "value": "~100", "unit": "%"},
      {"measurement": "Δ13C (degree of increase of the 13C level in exhaled CO2)", "setting": "[2]; benserazide hydrochloride 50 mg/kg i.p. three times, [1-13C]DOPA 50 mg/kg femoral vein, 20 minutes after the administration", "value": "about 5 ‰"}
    ]},
    {"smiles": "CN(C)C(=O)COC(=O)Cc1ccc(OC(=O)c2ccc(NC(=N)N)cc2)cc1", "note": "[camostat mesylate]", "values": [
      {"measurement": "function of the target enzyme", "setting": "[3]; camostat mesylate 20 mg/kg oral", "value": "inhibited"},
      {"measurement": "Δ13C twenty minutes after the administration", "setting": "[3]; camostat mesylate 20 mg/kg oral concurrently with Bz-Arg-[1-13C]Ala 12.2 mg/kg oral, n=3", "value": "27.64±4.86 ‰"}
    ]}
  ]
}
